Test results published in paper PMC8512147, “Multifunctional Small Molecules as Potential Anti-Alzheimer’s Disease Agents” (Molecules, 2021).

How the values were obtained:
Aβ1–42 peptide = Aβ1–42 peptide (Homo sapiens, UniProt P05067); experiment: Inhibition of Cu^2+-induced Aβ1–42 aggregation, Thioflavin T fluorescence assay; type: biochemical; set-up: Amyloid-β peptide (1–42) was purchased from GeneCust; purchased GeneCust; conditions: compounds 80 μM, with copper 40 μM; ThT fluorescence; mean of two independent measurements in duplicate; read-out: Inhibition of Aβ1–42 Aggregation (%) Cu-Induced Aβ Aggr.
Method: The studied compounds (1a–e) were tested in vitro to evaluate their activity as inhibitors of Aβ1-42 peptide aggregation, through the Thioflavin T (ThT) fluorescence assay. This method is based on the strong ability of the dye ThT to bind β-amyloid fibrils and oligomers through ionic and hydrophobic interactions, while its interaction with β-amyloid monomers is extremely weak. The intercalation of compounds in the β-sheet structure of amyloid protein may prevent fibrils aggregation and ThT binding, and it is evaluated by fluorimetry. The fluorescence emission measurements were performed after overnight incubation of the self-mediated or Cu^2+-induced Aβ fibril aggregates with the studied compounds.
The inhibition of β-amyloid (Aβ) aggregation was studied through the Th-T fluorescence assay, which was performed using a Varian Cary Eclipse fluorimeter at the following wavelengths: excitation (446 nm) and emission (485 nm). Amyloid-β peptide (1–42) was purchased from GeneCust as lyophilized powder stored at −20 °C.
The method used is based on thioflavin T (ThT) fluorescence emission, which depends on the interaction of this dye with Aβ fibrils. The assay is performed with the Aβ1–42 peptide sample, which was previously prepared by solubilization of its lyophilized powder in 1,1,1,3,3,3–hexafluoro-2-propanol (HFIP), an organic solvent useful to solubilize and monomerize the β-sheets protein aggregates. After 24 h, the solution was divided into Eppendorf tubes kept in ice, and then, HFIP was left to evaporate overnight (T = 25 °C). The resultant films were stored in the freezer. […] Compounds were dissolved in MeOH (1 mg/mL) and diluted with phosphate buffer to reach a ligand stock solution of 480 μM. Two different types of experiments were prepared in a final volume of 60 μL: control ligand assays (Aβ1–42 aggregation in the absence of inhibitor) and ligand assays (effect of ligand on Aβ1–42 aggregation). For each experiment, a blank sample without Aβ1–42 was used to monitor the effect of the compounds in fluorescence. To study the inhibition of aggregation in the presence of Cu^2+, which is known to promote it, an intermediate stock solution of CuCl2 in phosphate buffer (240 µM) was prepared. Then, it was aliquoted to obtain a final concentration of 40 µM in the samples. All samples were incubated in a water bath for 24 h at 37 °C. Then, 180 µL of ThT (5 µM) in glycine-NaOH buffer (50 mM, pH = 8.5) is added to each solution and 200 µL of it is placed in a 96-well plate (BD Falcon) to be read with the fluorimeter. After 5 min of incubation with ThT, fluorescence was measured at 446 nm (ʎ excitation) and 485 nm (ʎ emission).

[1] = Fe^3+ complexation, potentiometric / spectrophotometric titration; type: physicochemical; conditions: for log β (FemHhLl), species (101) / log β (FemHhLl), species (102): pH-potentiometric (FA), UV–Vis (1a, 1d); for pM (Fe^3+), pM = −log [M]: pH 7.4, CL/CM = 10, CM = 10^−6 M
Excerpt: (§1) The chelating ability of FA and of selected compounds 1a and 1d was studied by using the same experimental techniques (potentiometry, UV–Vis spectrophotometry) and experimental medium used for the titration of the ligand alone (20% w/w DMSO/water).
(§2) Alterations in the deprotonation profiles of the ligand titration curves due to the presence of the metal ions are evident in Figure 2, since the curves for the M/L systems appear well below that of FA for a > −1 (M = Fe) or a > 0 (M = Cu). This evidence supports the formation of metal complexes with the deprotonated (L^−) and mono-protonated (HL) forms of the ligand, whose stability order (Fe > Cu) follows the expected trend. Equilibrium models obtained from the fitting analysis of the potentiometric curves (M = Fe, Cu) and the UV–Vis spectral data (M = Fe, Cu) are reported in Table 2.
(§3) Both compounds 1a and 1d have similar chelating capacities towards iron and copper, which are also analogous to those of FA.
(§4) As concerns the metal chelation studies, potassium hydrogen phthalate (C8H5KO4, p.a.) was acquired from BDH, whereas dimethylsulfoxide (DMSO, dried, p.a.) and potassium chloride (KCl, p.a.) were supplied by Sigma-Aldrich. Aqueous solutions of metal ions were prepared starting from 1000 ppm standards (Titrisol, Sigma-Aldrich), to obtain solutions FeCl3 0.018 M and CuCl2 0.015 M. The metal content of solutions was evaluated by atomic absorption. Iron stock solution was prepared with an excess of acid chloride to avoid hydrolysis and its concentration in HCl was determined by the usual standard-addition method using 0.1M HCl (Titrisol). The 0.1M HCl solution, used in calibration of the glass electrode and in spectrophotometric titrations, was prepared from a Titrisol ampoule. The titrant was prepared from carbonate free commercial concentrate (Titrisol, KOH 0.1 M ampoules). The KOH solution was standardized by titration with a solution of potassium hydrogen phthalate using Gran’s method and it was rejected when the percentage of carbonate was greater than 0.5% of the total amount of base. The potentiometric studies were performed with an automated potentiometric apparatus controlled by PASAT program and containing a Crison micropH 2002 millivoltmeter, a Crison microBu 2031 burette and a Haake thermostatic bath (T = 25.0 ± 0.1 °C). The spectrophotometric titrations were carried out with a Perkin-Elmer Lambda 35 spectrophotometer.
(§5) Both glass and Ag/AgCl reference electrodes were previously conditioned in different DMSO/H2O mixtures of increasing DMSO % concentration and the response of the glass electrode was evaluated by strong acid–strong base (HCl/KOH) calibrations with the determination of the Nernst parameters by Gran’s method. […] The spectrophotometric measurements were carried out in a 250–450 nm wavelength range at pH ca. 2.5–11.8. Under the stated experimental conditions, the pKw value (14.27) was determined and subsequently used in the computations. The stepwise protonation constants of the ligands, Ki = [HiL]/[Hi-1L][H], and the overall metal complex stability constants, β (MmHhLl) = [MmHhLl]/[M]^m[H]^h[L]^l, were calculated by fitting the pH-potentiometric and spectrophotometric data with, respectively, the Hyperquad 2008 [41] and Psequad programs. The metal hydrolysis model was determined under the defined experimental conditions (I = 0.1 M KCl, 20% w/w DMSO/H2O, T = 25.0 ± 0.1 °C) and the following values of stability constants were included in the fitting of experimental data towards the equilibrium models related to the Fe^3+/L and Cu^2+/L systems: log β (FeH-2) = −6.78, log β (FeH-3) = −10.78; log β (Cu2H-2) = −9.94. The species distribution curves were obtained with the Hyss program.

[2] = Cu^2+ complexation, potentiometric / spectrophotometric titration; type: physicochemical; conditions: for log β (CumHhLl), species (1–12) / log β (CumHhLl), species (101): UV–Vis (1a, 1d); for pM (Cu^2+), pM = −log [M]: pH 7.4, CL/CM = 10, CM = 10^−6 M
Excerpt: as §1, §2, §3, §4, §5

[3] = T = 25.0 ± 0.1 °C, I = 0.1 M KCl, 20% w/w DMSO/water
[4] = T = 25.0 ± 0.1 °C, I = 0.1 M KCl, 20% w/w DMSO/water, pH-potentiometric (FA)

Chain of Aβ1–42 peptide (P05067 672-713): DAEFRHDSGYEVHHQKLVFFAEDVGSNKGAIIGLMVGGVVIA

SMILES	inhibition at 80 µM (Aβ1–42 peptide)	log β (FemHhLl), species (101) [1, 3]	log β (FemHhLl), species (102) [1, 3]	pM (Fe^3+), pM = −log [M] [1]	FeL in the Fe^3+/L system ([1]; pH ca. 2, species distribution)	melting point	log β (CumHhLl), species (1–21) ([2]; T = 25.0 ± 0.1 °C, I = 0.1 M KCl, 20% w/w DMSO/water, UV–Vis spectrophotometric data)	log β (CumHhLl), species (1–12) [2, 4]	log β (CumHhLl), species (101) [2, 4]	pM (Cu^2+), pM = −log [M] [2]	log β (FemHhLl), species (1–22) [1, 3]	log β (CumHhLl), species (102) ([2]; T = 25.0 ± 0.1 °C, I = 0.1 M KCl, 20% w/w DMSO/water, pH-potentiometric (FA), UV–Vis (1d))
COc1cc(/C=C/C(=O)NOCc2ccccc2OC)ccc1O [Compound 1a, (E)-3-(4-hydroxy-3-methoxyphenyl)-N-((2-methoxybenzyl)oxy)acrylamide]	79.6%	16.49(3)	23.69(4)	17.6	100%	58 °C	−13.16(7)	1.12(5)	6.27(7)	6.3		
COc1cc(/C=C/C(=O)NOCc2cccc(Cl)c2)ccc1O [Compound 1d, (E)-N-((3-chlorobenzyl)oxy)-3-(4-hydroxy-3-methoxyphenyl)acrylamide]	76.1%	15.42(7)	25.43(5)	18.2		47 to 48 °C		2.20(8)	7.49(7)	7.0	8.50(5)	12.14(7)
